Experimental data as given in patent US6914045B2, “Glycopeptide antibiotics” (Wyeth Holdings Corporation, priority 2001, dated 2005).

How the values were obtained:
Assay in all cases: in vitro antibacterial evaluation, MIC by broth dilution
Assay type in all cases: cell-based
Escherichia coli = settings: 18 hours at 35° C.
Enterococcus sp. = settings: broth dilution, 18 hours at 35° C.
Outline: (§1)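 Inoculum 5×10^5 CFU/mL; concentrations 64 to 0.06 μg/mL; MIC defined as lowest inhibitory level. Conducted by broth dilution under NCCLS guidelines.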

Staphylococcus sp. = settings: broth dilution, 18 hours at 35° C.
Outline: as §1

Streptococcus sp. = settings: broth dilution, 18 hours at 35° C.
Outline: as §1

COc1ccc(COCC2OC(OC3C(CO)OC(Oc4ccc(CC5NC(=O)C(C(C)c6ccccc6)NC(=O)CNC(=O)C(CO)NC(=O)C(C(O)C6CNC(=N)N6C6OC(CO)C(O)C(O)C6O)NC(=O)C(C(O)C6CNC(=N)N6)NC5=O)cc4)C(O)C3O)C(O)C(O)C2O)c2ccccc12 (stereo not shown) [Example 240]
2 mg/L: MIC Escherichia coli (GC 4560) (Escherichia coli) | MIC Enterococcus faecium (GC 4557) (Enterococcus sp.) | MIC Enterococcus faecium (GC 4557) (Enterococcus sp.; strain GC 4557) | MIC Coagulase Negative Staphylococcus (GC 4548) (Staphylococcus sp.) | MIC Coagulase Negative Staphylococcus (GC 4549) (Staphylococcus sp.) | MIC Coagulase Negative Staphylococcus (GC 4551) (Staphylococcus sp.) | MIC Coagulase Negative Staphylococcus (GC 6257) (Staphylococcus sp.) | MIC Staphylococcus aureus (GC 4542) (Staphylococcus sp.) | MIC Staphylococcus aureus-SMITH (GC 4543) (Staphylococcus sp.) | MIC Staphylococcus haemolyticus (GC 4546) (Staphylococcus sp.) | MIC Staphylococcus aureus (GC 4542) (Staphylococcus sp.; strain GC 4542) | MIC Staphylococcus aureus-SMITH (GC 4543) (Staphylococcus sp.; strain GC 4543) | MIC Staphylococcus haemolyticus (GC 4546) (Staphylococcus sp.; strain GC 4546) | MIC Coagulase Negative Staphylococcus (GC 4548) (Staphylococcus sp.; strain GC 4548) | MIC Coagulase Negative Staphylococcus (GC 4549) (Staphylococcus sp.; strain GC 4549) | MIC Coagulase Negative Staphylococcus (GC 4551) (Staphylococcus sp.; strain GC 4551) | MIC Coagulase Negative Staphylococcus (GC 6257) (Staphylococcus sp.; strain GC 6257)
16 mg/L: MIC Enterococcus faecalis (ATCC 29212) (Enterococcus sp.) | MIC Enterococcus faecalis (GC 2242) (Enterococcus sp.) | MIC Enterococcus faecalis (GC 4552) (Enterococcus sp.) | MIC Enterococcus faecalis (GC 4553) (Enterococcus sp.) | MIC Enterococcus faecalis (GC 4554) (Enterococcus sp.) | MIC Enterococcus faecium (GC 2243) (Enterococcus sp.) | MIC Enterococcus faecium (GC 4556) (Enterococcus sp.) | MIC Enterococcus faecalis (ATCC 29212) (Enterococcus sp.; strain ATCC 29212) | MIC Enterococcus faecium (GC 2243) (Enterococcus sp.; strain GC 2243) | MIC Enterococcus faecalis (GC 4552) (Enterococcus sp.; strain GC 4552) | MIC Enterococcus faecalis (GC 4553) (Enterococcus sp.; strain GC 4553) | MIC Enterococcus faecalis (GC 4554) (Enterococcus sp.; strain GC 4554) | MIC Enterococcus faecium (GC 4556) (Enterococcus sp.; strain GC 4556) | MIC Enterococcus faecalis (GC 2242) (Enterococcus sp.; inoculum 5×10^5 CFU/mL, strain GC 2242)
4 mg/L: MIC Enterococcus avium (GC 4558) (Enterococcus sp.) | MIC Enterococcus avium (GC 4558) (Enterococcus sp.; strain GC 4558) | MIC Coagulase Negative Staphylococcus (GC 4547) (Staphylococcus sp.) | MIC Staphylococcus aureus (ATCC 29213) (Staphylococcus sp.) | MIC Staphylococcus aureus (GC 1131) (Staphylococcus sp.) | MIC Staphylococcus aureus (GC 3053) (Staphylococcus sp.) | MIC Staphylococcus aureus (GC 4544) (Staphylococcus sp.) | MIC Staphylococcus aureus (GC 4545) (Staphylococcus sp.) | MIC Staphylococcus aureus (ATCC 29213) (Staphylococcus sp.; strain ATCC 29213) | MIC Staphylococcus aureus (GC 1131) (Staphylococcus sp.; strain GC 1131) | MIC Staphylococcus aureus (GC 3053) (Staphylococcus sp.; strain GC 3053) | MIC Staphylococcus aureus (GC 4544) (Staphylococcus sp.; strain GC 4544) | MIC Staphylococcus aureus (GC 4545) (Staphylococcus sp.; strain GC 4545) | MIC Coagulase Negative Staphylococcus (GC 4547) (Staphylococcus sp.; strain GC 4547)
8 mg/L: MIC Enterococcus faecalis (GC 2691) (Enterococcus sp.) | MIC Enterococcus faecalis (GC 3059) (Enterococcus sp.) | MIC Enterococcus faecalis (GC 6189) (Enterococcus sp.) | MIC Enterococcus faecalis (GC 6189) (Enterococcus sp.; strain GC 6189) | MIC Enterococcus faecalis (GC 2691) (Enterococcus sp.; inoculum 5×10^5 CFU/mL, strain GC 2691) | MIC Enterococcus faecalis (GC 3059) (Enterococcus sp.; inoculum 5×10^5 CFU/mL, strain GC 3059)
0.5 mg/L: MIC Staphylococcus aureus (GC 3051) (Staphylococcus sp.) | MIC Staphylococcus aureus (GC 3051) (Staphylococcus sp.; strain GC 3051) | MIC Streptococcus agalactiae (GC 4564) (Streptococcus sp.) | MIC Streptococcus pyogenes (GC 4563) (Streptococcus sp.) | MIC Streptococcus pyogenes (GC 4563) (Streptococcus sp.; inoculum 5×10^5 CFU/mL, strain GC 4563) | MIC Streptococcus agalactiae (GC 4564) (Streptococcus sp.; inoculum 5×10^5 CFU/mL, strain GC 4564)
<0.12 mg/L: MIC Streptococcus pneumoniae (ATCC 6301) (Streptococcus sp.) | MIC Streptococcus pneumoniae (GC 1894) (Streptococcus sp.) | MIC Streptococcus pneumoniae (ATCC 6301) (Streptococcus sp.; inoculum 5×10^5 CFU/mL, strain ATCC 6301) | MIC Streptococcus pneumoniae (GC 1894) (Streptococcus sp.; inoculum 5×10^5 CFU/mL, strain GC 1894)
128 mg/L: MIC Escherichia coli (ATCC 25922) (Escherichia coli)
0.25 mg/L: MIC Streptococcus pneumoniae (GC 4565) (Streptococcus sp.) | MIC Streptococcus pneumoniae (GC 4565) (Streptococcus sp.; inoculum 5×10^5 CFU/mL, strain GC 4565)
1 mg/L: MIC Staphylococcus aureus (GC 4541) (Staphylococcus sp.) | MIC Staphylococcus aureus (GC 4541) (Staphylococcus sp.; strain GC 4541)
>128 mg/L: MIC Escherichia coli (GC 4559) (Escherichia coli)
